The target of one experiment is T1, N-terminal domain HSP90α (Homo sapiens, UniProt P07900).
T1 construct: the N-terminal domain HSP90α; made in house
Description: Differential scanning fluorimetry (thermal shift), Hsp90α N-terminal domain. The experiment is classed as binding. The conditions noted are these: 10 μM compound, Hsp90α catalytic domain. As to the method: To measure the thermal stabilization of the proteins upon compound binding we employed differential scanning fluorimetry (DSF). The kinase domain of RIPK1 and the N-terminal domain HSP90α were expressed and purified as previously described. The pseudokinase MLKL-1, RIPK1 and Hsp90 were melted at 1μM final concentrations in 25mM HEPES pH 8.0, 250mM NaCl and 2.5mM DTT. Compounds were added to a final concentration of 10 μ M with a final DMSO concentration of 5%. The complexes were incubated on ice for 30 minutes. Protein Thermal Shift dye (Life Technologies) was added to 1X. The fluorescence intensities were measured using a Quantstudio real-time PCR system (Life Technologies) with excitation at 470 nm and emission at 586 nm. The samples, measured in triplicate, were heated from 25 to 85°C with a heating rate of […].

The target in another experiment is T2, full length MLKL (Homo sapiens, UniProt Q8NB16).
T2 construct: purchased DiscoverX (KINOMEscan service); host or cells: HEK-293
T2 sequence (Q8NB16 1-471): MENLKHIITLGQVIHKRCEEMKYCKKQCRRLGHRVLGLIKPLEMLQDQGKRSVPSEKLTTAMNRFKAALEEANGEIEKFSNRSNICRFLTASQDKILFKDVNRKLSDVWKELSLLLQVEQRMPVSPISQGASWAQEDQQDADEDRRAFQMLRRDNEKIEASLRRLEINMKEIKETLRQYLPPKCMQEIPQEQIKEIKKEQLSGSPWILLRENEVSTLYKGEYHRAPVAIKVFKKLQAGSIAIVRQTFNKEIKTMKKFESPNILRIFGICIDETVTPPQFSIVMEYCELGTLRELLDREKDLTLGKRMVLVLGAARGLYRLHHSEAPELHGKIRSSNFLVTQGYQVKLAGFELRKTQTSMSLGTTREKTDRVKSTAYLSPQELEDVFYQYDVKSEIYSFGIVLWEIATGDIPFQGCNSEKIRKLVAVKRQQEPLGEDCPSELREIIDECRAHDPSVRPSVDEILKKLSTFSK
Description: KINOMEscan ATP-competitive probe displacement (competition binding) assay, MLKL. Particulars: average of duplicates. As to the method: Compound binding constants (KDs) were determined at DiscoverX using their KINOMEscan assay platform. […] Briefly, full length MLKL was expressed in HEK-293 cells as a fusion with an NFκB DNA binding domain and subsequently tagged with a qPCR detection amplicon via interaction with NFκB. […] Twenty microliters of binding reactions were carried out in 384-well polypropylene plates for 1 hour at room temperature. Beads were subsequently washed and resuspended in elution buffer for 30 minutes at room temperature with shaking. The concentration of MLKL in the eluates was measured by qPCR and compound binding constants were calculated using a standard dose-response curve.
(§1) A similar approach was used to measure binding affinities for RIPK1 and RIPK3 kinase domains.

In another experiment the target is T3, RIPK1 kinase domain (Homo sapiens, UniProt Q13546).
T3 construct: purchased DiscoverX
T3 sequence (Q13546 17-289 limits assumed): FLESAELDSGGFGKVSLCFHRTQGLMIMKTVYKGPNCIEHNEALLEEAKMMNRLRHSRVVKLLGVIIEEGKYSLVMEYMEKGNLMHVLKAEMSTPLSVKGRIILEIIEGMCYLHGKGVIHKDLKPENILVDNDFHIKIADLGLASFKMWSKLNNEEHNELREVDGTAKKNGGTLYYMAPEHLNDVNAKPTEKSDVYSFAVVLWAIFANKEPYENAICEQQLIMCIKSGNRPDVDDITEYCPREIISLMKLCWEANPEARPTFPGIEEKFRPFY
Briefly: ATP-competitive probe displacement assay, RIPK1. The experiment is classed as binding. Particulars: average of duplicates. As to the method:
(§2) Compound binding constants (KDs) were determined at DiscoverX using their KINOMEscan assay platform. This competition binding assay was previously described in Karaman et al. (2008)[18]. Briefly, full length MLKL was expressed in HEK-293 cells as a fusion with an NFκB DNA binding domain and subsequently tagged with a qPCR detection amplicon via interaction with NFκB. […] Twenty microliters of binding reactions were carried out in 384-well polypropylene plates for 1 hour at room temperature. Beads were subsequently washed and resuspended in elution buffer for 30 minutes at room temperature with shaking. The concentration of MLKL in the eluates was measured by qPCR and compound binding constants were calculated using a standard dose-response curve.
as §1

Another experiment concerns the target T4, RIPK3 kinase domain (Homo sapiens, UniProt Q9Y572).
T4 construct: purchased DiscoverX
Description: ATP-competitive probe displacement assay, RIPK3. The experiment is classed as binding. As to the method: as §2, §1

Structures are written as SMILES.

T4 sequence (Q9Y572 21-287 limits assumed): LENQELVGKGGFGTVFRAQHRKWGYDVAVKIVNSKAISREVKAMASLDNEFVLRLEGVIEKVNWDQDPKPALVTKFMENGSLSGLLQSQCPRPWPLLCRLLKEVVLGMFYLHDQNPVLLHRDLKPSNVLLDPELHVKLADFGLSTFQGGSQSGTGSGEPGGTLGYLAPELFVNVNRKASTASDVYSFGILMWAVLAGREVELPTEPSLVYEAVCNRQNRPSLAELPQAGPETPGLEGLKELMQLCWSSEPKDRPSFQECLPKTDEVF

Consider `CN(c1ccc(NC(=O)Nc2ccc(OC(F)(F)F)cc2)cc1)c1ccnc(Nc2cccc(S(N)(=O)=O)c2)n1` [cpd 1, reference compound], for which the ΔTm at 10 µM on N-terminal domain HSP90α worked out at 1.5 °C.

Take `Nc1nccnc1C(=O)O[C@@H](C(=O)Nc1ccc(F)cc1)c1ccccc1` [cpd 4, 3-Amino-pyrazine-2-carboxylic acid (R)-(4-fluorophenylcarbamoyl)-phenyl-methyl ester]: the Kd was 0.23 µM at full length MLKL, above 30 µM on RIPK1 kinase domain and above 30 µM on RIPK3 kinase domain (average of duplicates). On RIPK3 kinase domain, the “displacement of the ATP probe from / binding to RIPK3 (in words)” value is recorded as “without binding RIPK1 or RIPK3”.

Usually ΔTm stands for the shift of the melting midpoint relative to a reference. Usually Kd stands for the equilibrium constant for the complex coming apart. Higher therefore signals a looser complex.

Source of the values: publication PMC5104457, “ATP-Competitive MLKL Binders Have No Functional Impact on Necroptosis” (PLoS ONE, 2016).
